This is an account of results in patent US20240324679A1, “METHODS AND DEVICES FOR CONTROLLING THE TEMPERATURE OF A DRUG FOIL SUBSTRATE TO GENERATE AN AEROSOL” (ALEXZA PHARMACEUTICALS, INC., priority 2021, published 2024).

Where a name gives a salt, the structure may show the parent alone.

A short description of data set [1]: Vaporization of apomorphine HCl film from drug foil substrate, Heat Source 1 (testing electric heating, Device 1). The settings on record: 0.44 mg/cm^2 coating, airflow ~30 L/min. In kind it is physicochemical. How it is done: Device 1 has an air inlet and air outlet and a 1 F capacitor (Phoenix Gold Titanium series) to be discharged to resistively heat the substrate (<0.2 sec) and facilitate rapid aerosol formation with a cross-foil airflow of ˜ 30 L/min. Calibration for temperature versus applied voltage was determined with a thermocouple spot-welded to the foil surface.
A 12.7×63.5, 0.127 mm 304-stainless steel drug foil substrate attached to Device 1 with connexions to receive electrical power from an electrical source. Devices were actuated with a constant airflow of ˜ 30 L/min. An example is depicted in FIG. 1D.
(§1) […] was coated on 2.27 cm^2 (0.44 mg/cm^2) on the drug foil substrate of Heat Source 1 or 2 and heated to the temperatures specified in the table below.

Data set [2] is described as follows: Vaporization of apomorphine HCl film from drug foil substrate, Heat Source 2 (chemical heat package, Device 2). To be noted: 0.44 mg/cm^2 coating, airflow ~30 L/min. The format is physicochemical.
Text: A 100 mm long device such as that in FIG. 1B, the same shape as that of the Adasuve® device, moulded from PermaStat® resin (antistatic material).
A 47.2×47.2×0.38 mm 304-stainless steel drug foil substrate is attached to a chemical heat package connected to Device 2.
In chemical heat package devices, an exothermic thermite reaction from the reactants inside of the heat package rapidly propagated (˜ 0.1 s) and generated heat nearly instantaneously, which vaporized the drug film. The reactants are calibrated to heat the drug foil substrate to a given temperature. Upper and lower housings were welded prior to vaporization. Devices were actuated with a constant airflow of ˜ 30 L/min.
as §1

Setting [3] is: Heat Source 1, substrate temp. 260 °C.
Setting [4] is: Heat Source 1, substrate temp. 290 °C.
Where [5] appears, read: Heat Source 1, substrate temp. 310 °C.
[6] abbreviates: Heat Source 1, substrate temp. 320 °C.
Where [7] appears, read: Heat Source 2, substrate temp. 310 °C.
Setting [8] is: Heat Source 2, substrate temp. 330 °C.

`CN1CCc2cccc3c2[C@H]1Cc1ccc(O)c(O)c1-3` [apomorphine HCl]: the “% Vaporization” value in data set [1] (setting [3]) was 40.57 ± 9.34%; in data set [1] (setting [4]) it was 58.03 ± 12.15%; in data set [1] (setting [5]), 59.69 ± 0.34%; in data set [1] (setting [6]), 66.14 ± 0.95%; in data set [2] (setting [7]), 48.32 ± 16.77%; in data set [2] (setting [8]), 61.58 ± 2.07%. In data set [2] (Heat Source 2, substrate temp. 400 °C), the “% Vaporization” value turned out to be 49.07 ± 1.12%. For the same compound, the “Aerosol Purity (%)” value in data set [1] (setting [3]) came to 98.35 ± 0.64%; in data set [1] (setting [4]), 96.45 ± 0.93%; in data set [1] (setting [5]), 94.92 ± 1.12%; in data set [1] (setting [6]), 90.89 ± 0.78%; in data set [2] (setting [7]), 91.71 ± 1.62%; in data set [2] (setting [8]), 87.51 ± 0.18%.
